The subject of assay [1] is rat. Kind of assay: Rat hot plate test, 10 single daily intrathecal doses of elcatonin over 11 days (Example 12). As to conditions: 4.4 IU/kg intrathecal, 10 daily doses in two 5 day phases (FIG. 8). The assay is classed as in vivo. As to the method: Intrathecal catheters were implanted in rats as described hereinabove, and a 7-10 day period thereafter allowed for full recovery from the surgical procedures. Nine rats were assigned to three treatment groups of three rats per group. The study is conducted in two 5 day treatment phases separated by a 48 hour nontreatment interval. Treatment Group I rats receive no treatment (sham injection). In each treatment phase, Group II rats received five consecutive daily intrathecal doses of sterile physiological saline (vehicle control), for a total of 10 injections per study treatment.
For each treatment, hot plate latencies are determined as described in Example 5 hereinabove at 0 minutes (predose, baseline), 1 hour, 3 hours, and 24 hours following injection on the 1st, 3rd, 5th, 7th, 9th and 11th study days (Table 4).
(In general: Thermal pain tests record how soon the animal reacts.)

In assay [2] the test system is rat. Kind of assay: Rat hot plate test, intrathecal elcatonin with 0.1% human serum albumin (Example 13). The assay is classed as in vivo. As to conditions: 4.4 IU/kg intrathecal in 0.1% HSA, 5 day multiple administrations (FIG. 9). How it is done: On each study day, a standard 25% (wt/vol) solution of HSA is diluted under aseptic conditions with physiological saline ([…] of NaCl, USP grade) to achieve the desired stock solution concentration of 0.2% (wt/vol).
Thirty-two male rats (320-420 g) are obtained, adapted, catheterized and recovered as described hereinabove. […] Group II rats are injected intrathecally with a dose of 4.4 IU/kg in physiological saline containing 0.1% HSA, in a volume of 10 μL/kg. Group III rats are injected with physiological saline containing 0.1% HSA, 10 μL/kg. Each dose is followed by a washout of 8 μL of physiological saline.
In each of the study groups, hot plate latencies are determined at 0 minutes (baseline, predose), 1 hour, 3 hours, 6 hours, and 24 hours following intrathecal injections on the 1st, 3rd and 5th study days.

As for “[Des-Cys^1,ASU^7 ]-Calcitonin, Eel [Elcatonin]”, in the assay with rat [1], the “analgesic effect over time” value is recorded as “cumulative analgesic effect over time” and the hot plate latency entry is recorded as “hot plate latency is increased”. For the same substance, the hot plate latency result in the assay with rat [2] was “increase in rat hot plate latency”.

Source of the values: patent US5721207A, “Method for treatment of pain” (Innapharma, Inc., priority 1995, dated 1998).
